Results reported in patent US20100130509A1, “NOVEL ANTIBIOTICS” (Nederlandse Organisatie voor toegepast-natuurwe- …, priority 2007, published 2010).
≈ marks a conversion by molar mass, not a printed value. Read-outs that look alike come from different tables or passages of the source.

Experiments:
Staphylococcus aureus = test: Antibiotic activity towards Staphylococcus aureus (summary statements); assay type: cell-based; conditions: statement in words
[1] = test system: S. aureus strain ATCC 6538; test: MIC test (CLSI M7-A6 dilution), S. aureus ATCC 6538; assay type: cell-based, Staphylococcus aureus; conditions: for MIC: Staphylococcus aureus
S. aureus TTC 03.0236 = test: MIC test (CLSI M7-A6 dilution), S. aureus TTC 03.0236; assay type: cell-based; conditions: Staphylococcus aureus, TTC03.0236; single strain; TTC is internal collection number
Method: (§1) MIC test were performed according to standard methodology: M7-A6-“Methods for Dilution Antimicrobial Susceptibility Tests for Bacteria That Grow Aerobically”; Approved Standard, Sixth Edition Clinical and Laboratory Standards Institute 2005 (CLSI/formerly NCCLS).

S. aureus TTC 03.0239 = test: MIC test (CLSI M7-A6 dilution), S. aureus TTC 03.0239; assay type: cell-based; conditions: Staphylococcus aureus, TTC03.0239; single strain; TTC is internal collection number
Method: as §1

S. epidermis = test: MIC test (CLSI M7-A6 dilution), S. epidermis; assay type: cell-based; conditions: single strain
Method: as §1

[2] = ATCC6538, Table II, Example 3, read-out: MIC S. aureus ATCC 6538
[3] = ATCC6538, single strain, Table I, read-out: MIC S. aureus ATTC 6538

Structure (SMILES)	antibiotic activity towards Staphylococcus aureus (Staphylococcus aureus)	efficacy as antimicrobial agents (Staphylococcus aureus)	MIC [1, 2]	MIC S. aureus ATCC 6538 ([1]; Table II, Example 3)	further results
Cc1ccccc1-n1nnnc1C(Cl)(Cl)C(=O)Nc1ccccc1 [NewCo 0058, 2,2-dichloro-N-phenyl-2-(1-o-tolyl-1H-tetrazol-5-yl)-acetamide]	most notable	exceptionally good	0.39 µg/mL (≈ 1.08 µM)	–	–
O=C(Nc1ccccc1)C(Cl)(Cl)c1nnnn1-c1ccccc1 [NewCo0052, N1-phenyl-2,2-dichloro-2-(1-phenyl-1H-1,2,3,4-tetraazol-5-yl)acetamide]	most notable	exceptionally good	–	–	MIC (S. aureus TTC 03.0236): 1.56 µg/mL (≈ 4.48 µM); MIC (S. aureus TTC 03.0239): 1.56 µg/mL (≈ 4.48 µM); MIC (S. epidermis): 0.78 µg/mL (≈ 2.24 µM); MIC [1, 3]: 1.56 µg/mL (≈ 4.48 µM)
Cc1ccccc1-n1nnnc1C(Cl)(Cl)C(=O)NC(C)C [NewCo 0059, 2,2-dichloro-N-isopropyl-2-(1-o-tolyl-1H-tetrazol-5-yl)-acetamide]	–	–	25 µg/mL (≈ 76.2 µM)	–	–
Cc1ccccc1-n1nnnc1C(Cl)(Cl)C(=O)N(C)C [NewCo 0064, 2-dichloro-N,N-dimethyl-2-(1-o-tolyl-1H-tetrazol-5-yl)-acetamide]	–	–	–	100 µg/mL (≈ 318 µM)	–
Cc1ccccc1-n1nnnc1C(Cl)(Cl)C(=O)Nc1ccncc1 [NewCo 0061, 2,2-dichloro-N-pyridin-4-yl-2-(1-o-tolyl-1H-tetrazol-5-yl)-acetamide]	most notable	exceptionally good	0.78 µg/mL (≈ 2.15 µM)	–	–
COc1ccccc1NC(=O)C(Cl)(Cl)c1nnnn1-c1ccccc1OC [NewCo0053, N1-(2-methoxyphenyl)-2,2-dichloro-2-[1-(2-methoxyphenyl)-1H-1,2,3,4-tetraazol-5-yl]acetamide]	most notable	exceptionally good	–	–	MIC (S. aureus TTC 03.0236): 0.78 µg/mL (≈ 1.91 µM); MIC (S. aureus TTC 03.0239): 1.56 µg/mL (≈ 3.82 µM); MIC (S. epidermis): 0.78 µg/mL (≈ 1.91 µM); MIC [1, 3]: 0.78 µg/mL (≈ 1.91 µM)
Cc1ccccc1-n1nnnc1C(Cl)(Cl)C(=O)NC1CCNCC1 [NewCo 0062, 2,2-dichloro-N-piperidin-4-yl-2-(1-O— tolyl-1H-tetrazol-5-yl)-acetamide]	–	–	–	50 µg/mL (≈ 135 µM)	–
Cc1ccccc1-n1nnnc1C(Cl)(Cl)C(N)=O [NewCo 0063, 2,2-dichloro-2-(1-o-tolyl-1H-tetrazol-5-yl)-acetamide]	most notable	exceptionally good	1.56 µg/mL (≈ 5.45 µM)	–	–
Cc1ccccc1-n1nnnc1C(Cl)(Cl)C(=O)N1CCNCC1 [NewCo 0060, 2,2-dichloro-1-piprazin-1-yl-2-(1-o-tolyl-1H-tetrazol-5-yl)-ethanone]	–	–	–	12.5 µg/mL (≈ 35.2 µM)	–
CN[C@H](CC(C)C)C(=O)N[C@H]1C(=O)N[C@@H](CC(N)=O)C(=O)N[C@H]2C(=O)N[C@H]3C(=O)N[C@H](C(=O)N[C@H](C(=O)O)c4cc(O)cc(O)c4-c4cc3ccc4O)[C@H](O)c3ccc(c(Cl)c3)Oc3cc2cc(c3O[C@@H]2O[C@H](CO)[C@@H](O)[C@H](O)[C@H]2O[C@H]2C[C@](C)(N)[C@H](O)[C@H](C)O2)Oc2ccc(cc2Cl)[C@H]1O [Vancomycin, reference compound]	–	–	–	–	MIC ([1]; ATCC6538, read-out: MIC S. aureus ATCC 6538): 0.78 µg/mL (≈ 0.538 µM)
